Consider 9 compounds from ChEMBL document CHEMBL4000210, “Mitigation of reactive metabolite formation for a series of 3-amino-2-pyridone inhibitors of Bruton's tyrosine kinase (BTK)” (Bioorg Med Chem Lett, 2017).

The first series has as its system Liver. Put plainly: Drug metabolism in human liver microsomes assessed as covalent binding per mg protein at 10 uM preincubated for 5 mins followed by NADPH addition measured after 30 mins by liquid scintillation counting. The class given is ADME, microsome. Particulars: 0.5 h. A general note: Liver microsomes are vesicles of endoplasmic reticulum, rich in cytochrome P450 enzymes.
Turning to `Cn1cc(-c2cccc(-n3ncc4cc(C(C)(C)C)cc(F)c4c3=O)c2[14CH2]O)cc(Nc2ccc(S(C)(=O)=O)cn2)c1=O`, the Drug metabolism stood at 386 pmol.

Turning to `CN1CCN(c2ccc(Nc3cc(-c4cccc(-n5ncc6cc(C(C)(C)C)cc(F)c6c5=O)c4[14CH2]O)cn(C)c3=O)nc2)CC1`, the Drug metabolism is 459 pmol.

Regarding `Cn1nc(-c2cccc(-n3ncc4cc(C(C)(C)C)cc(F)c4c3=O)c2[14CH2]O)cc(Nc2ccc(C(=O)N3CCOCC3)cn2)c1=O`, the Drug metabolism came to 26 pmol.

In the case of `CN1CCN(c2ccc(Nc3cc(-c4cccc(-n5ccc6cc(C7CC7)cc(F)c6c5=O)c4CO)cn(C)c3=O)nc2)CC1`, the Drug metabolism is on record as 294 pmol.

Consider `CN(C)c1ccc2c(c1)CCN(c1cccc(-c3cc(Nc4ccc(C(=O)N5CCOCC5)cn4)c(=O)n(C)c3)c1[14CH2]O)C2=O`, for which the Drug metabolism is 52 pmol.

Turning to `Cn1cc(-c2cccc(N3CCc4cc(C(C)(C)C)ccc4C3=O)c2[14CH2]O)cc(Nc2ccc(C(=O)N3CCOCC3)cn2)c1=O`, the Drug metabolism is on record as 422 pmol.

Regarding `Cn1cc(-c2cccc(-n3ncc4cc(C(C)(C)C)cc(F)c4c3=O)c2[14CH2]O)cc(Nc2ccc(C(=O)N3CCOCC3)cn2)c1=O`, the Drug metabolism was 294 pmol.

The next series has as its system Liver. The experiment in a line: Drug metabolism in human liver microsomes assessed as covalent binding per mg protein at 10 uM in absence of NADPH measured after 30 mins by liquid scintillation counting. The class given is ADME, microsome. Particulars: 0.5 h.
On to `CN1CCN(c2ccc(Nc3cc(-c4cccc(-n5ncc6cc(C(C)(C)C)cc(F)c6c5=O)c4[14CH2]O)cn(C)c3=O)nc2)CC1`, for which the Drug metabolism is 49 pmol.

A further series has as its system Liver. The experiment in a line: Drug level in human liver microsomes treated with 6-tert-butyl-8-fluoro-2-(2-(hydroxymethyl)-3-(1-methyl-5-(5-(methylsulfonyl)pyridin-2-ylamino)-6-oxo-1,6-dihydropyridin-3-yl)phenyl)phthalazin-1(2H)-one by UPLC-MS/MS method. Format: ADME, microsome.
Conditions: not given
For the compound `CN1C(=O)/C(=N/c2ccc(S(C)(=O)=O)cn2)C=C(c2cccc(-n3ncc4cc(C(C)(C)C)cc(F)c4c3=O)c2CO)C1SC[C@H](NC(=O)CC[C@H](N)C(=O)O)C(=O)NCC(=O)O` (stereo not given in full), the Drug metabolism result is on record as “Metabolite_Detected”.

Take `CN1C(=O)/C(=N/c2ccc(S(C)(=O)=O)cn2)C=C(c2cccc(-n3ncc4cc(C(C)(C)CO)cc(F)c4c3=O)c2CO)C1SC[C@H](NC(=O)CC[C@H](N)C(=O)O)C(=O)NCC(=O)O` (stereo not given in full): the Drug metabolism entry is on record as “Metabolite_Detected”.
